Data: ChEMBL document CHEMBL4627344, “Synthesis, biological evaluation and virtual screening of some acridone derivatives as potential anticancer agents” (2020)

Legend:
Type in all cases: functional
[1] = test system: HCT-116; assay: Antiproliferative activity against human HCT116 cells assessed as inhibition of cell growth at 10 uM measured after 48 hrs by SRB assay relative to control; conditions: HCT-116, 48 h, read-out: GI
[2] = test system: SK-OV-3; assay: Antiproliferative activity against human SKOV3 cells assessed as inhibition of cell growth measured after 48 hrs by SRB assay; conditions: SK-OV-3, 48 h
[3] = test system: OVCAR-5; assay: Antiproliferative activity against human OVCAR5 cells assessed as inhibition of cell growth at 10 uM measured after 48 hrs by SRB assay relative to control; conditions: OVCAR-5, 48 h, read-out: GI
[4] = test system: OVCAR-3; assay: Antiproliferative activity against human OVCAR3 cells assessed as inhibition of cell growth at 10 uM measured after 48 hrs by SRB assay relative to control; conditions: OVCAR-3, 48 h, read-out: GI
[5] = test system: SN12C; assay: Antiproliferative activity against human SN12C cells assessed as inhibition of cell growth at 10 uM measured after 48 hrs by SRB assay relative to control; conditions: read-out: GI
[6] = test system: MOLT-4; assay: Antiproliferative activity against human MOLT4 cells assessed as inhibition of cell growth measured after 48 hrs by SRB assay; conditions: MOLT-4, 48 h
[7] = test system: SF-295; assay: Antiproliferative activity against human SF295 cells assessed as inhibition of cell growth measured after 48 hrs by SRB assay; conditions: SF-295, 48 h
[8] = test system: A498; assay: Antiproliferative activity against human A498 cells assessed as inhibition of cell growth measured after 48 hrs by SRB assay; conditions: A498, 48 h
[9] = test system: SW-620; assay: Antiproliferative activity against human SW620 cells assessed as inhibition of cell growth at 10 uM measured after 48 hrs by SRB assay relative to control; conditions: SW-620, 48 h, read-out: GI
[10] = test system: NCI/ADR-RES; assay: Antiproliferative activity against human NCI/ADR-RES cells assessed as inhibition of cell growth measured after 48 hrs by SRB assay
[11] = test system: SR; assay: Antiproliferative activity against human SR cells assessed as inhibition of cell growth measured after 48 hrs by SRB assay
[12] = test system: MDA-MB-435; assay: Antiproliferative activity against human MDA-MB-435 cells assessed as inhibition of cell growth at 10 uM measured after 48 hrs by SRB assay relative to control; conditions: MDA-MB-435, 48 h, read-out: GI
[13] = test system: NCI-H226; assay: Antiproliferative activity against human NCI-H226 cells assessed as inhibition of cell growth at 10 uM measured after 48 hrs by SRB assay relative to control; conditions: NCI-H226, 48 h, read-out: GI
[14] = test system: UACC-62; assay: Antiproliferative activity against human UACC62 cells assessed as inhibition of cell growth measured after 48 hrs by SRB assay; conditions: UACC-62, 48 h
[15] = test system: HCT-15; assay: Antiproliferative activity against human HCT15 cells assessed as inhibition of cell growth measured after 48 hrs by SRB assay; conditions: HCT-15, 48 h
[16] = test system: MCF7; assay: Antiproliferative activity against human MCF7 cells assessed as inhibition of cell growth measured after 48 hrs by SRB assay; conditions: MCF7, 48 h
[17] = test system: OVCAR-8; assay: Antiproliferative activity against human OVCAR8 cells assessed as inhibition of cell growth at 10 uM measured after 48 hrs by SRB assay relative to control; conditions: OVCAR-8, 48 h, read-out: GI
[18] = test system: SK-MEL-5; assay: Antiproliferative activity against human SK-MEL-5 cells assessed as inhibition of cell growth measured after 48 hrs by SRB assay; conditions: SK-MEL-5, 48 h
[19] = test system: NCI-H322M; assay: Antiproliferative activity against human NCI-H322M cells assessed as inhibition of cell growth measured after 48 hrs by SRB assay
[20] = test system: MOLT-4; assay: Antiproliferative activity against human MOLT4 cells assessed as inhibition of cell growth at 10 uM measured after 48 hrs by SRB assay relative to control; conditions: MOLT-4, 48 h, read-out: GI
[21] = test system: CCRF-CEM; assay: Antiproliferative activity against human CCRF-CEM cells assessed as inhibition of cell growth measured after 48 hrs by SRB assay
[22] = test system: UO-31; assay: Antiproliferative activity against human UO31 cells assessed as inhibition of cell growth measured after 48 hrs by SRB assay; conditions: UO-31, 48 h
[23] = test system: SK-MEL-5; assay: Antiproliferative activity against human SK-MEL-5 cells assessed as inhibition of cell growth at 10 uM measured after 48 hrs by SRB assay relative to control; conditions: SK-MEL-5, 48 h, read-out: GI
[24] = test system: M14; assay: Antiproliferative activity against human M14 cells assessed as inhibition of cell growth measured after 48 hrs by SRB assay; conditions: M14, 48 h
[25] = test system: SK-MEL-28; assay: Antiproliferative activity against human SK-MEL-28 cells assessed as inhibition of cell growth measured after 48 hrs by SRB assay; conditions: SK-MEL-28, 48 h
[26] = test system: SK-MEL-2; assay: Antiproliferative activity against human SK-MEL-2 cells assessed as inhibition of cell growth measured after 48 hrs by SRB assay; conditions: SK-MEL-2, 48 h
[27] = test system: HT-29; assay: Antiproliferative activity against human HT-29 cells assessed as inhibition of cell growth measured after 48 hrs by SRB assay; conditions: HT-29, 48 h
[28] = test system: COLO 205; assay: Antiproliferative activity against human COLO205 cells assessed as inhibition of cell growth measured after 48 hrs by SRB assay; conditions: COLO 205, 48 h
[29] = test system: U-251; assay: Antiproliferative activity against human U251 cells assessed as inhibition of cell growth at 10 uM measured after 48 hrs by SRB assay relative to control; conditions: U-251, 48 h, read-out: GI
[30] = test system: HCT-116; assay: Antiproliferative activity against human HCT116 cells assessed as inhibition of cell growth measured after 48 hrs by SRB assay; conditions: HCT-116, 48 h
[31] = test system: SNB-19; assay: Antiproliferative activity against human SNB19 cells assessed as inhibition of cell growth at 10 uM measured after 48 hrs by SRB assay relative to control; conditions: SNB-19, 48 h, read-out: GI
[32] = test system: EKVX; assay: Antiproliferative activity against human EKVX cells assessed as inhibition of cell growth measured after 48 hrs by SRB assay
[33] = test system: BT-549; assay: Antiproliferative activity against human BT549 cells assessed as inhibition of cell growth measured after 48 hrs by SRB assay; conditions: BT-549, 48 h
[34] = test system: ACHN; assay: Antiproliferative activity against human ACHN cells assessed as inhibition of cell growth measured after 48 hrs by SRB assay
[35] = test system: A498; assay: Antiproliferative activity against human A498 cells assessed as inhibition of cell growth at 10 uM measured after 48 hrs by SRB assay relative to control; conditions: A498, 48 h, read-out: GI
[36] = test system: CCRF-CEM; assay: Antiproliferative activity against human CCRF-CEM cells assessed as inhibition of cell growth at 10 uM measured after 48 hrs by SRB assay relative to control; conditions: read-out: GI
[37] = test system: A549; assay: Antiproliferative activity against human A549 cells assessed as inhibition of cell growth at 10 uM measured after 48 hrs by SRB assay relative to control; conditions: A549, 48 h, read-out: GI

Row | SMILES | inhibition of growth at 10 µM [1] | inhibition of growth at 10 µM [3] | inhibition of growth at 10 µM [4] | inhibition of growth at 10 µM [5] | GI50 [6] | GI50 [7] | GI50 [8] | inhibition of growth at 10 µM [9] | GI50 [10] | GI50 [11] | inhibition of growth at 10 µM [12] | inhibition of growth at 10 µM [13] | GI50 [14] | GI50 [15] | GI50 [16] | inhibition of growth at 10 µM [17] | GI50 [18] | GI50 [19] | inhibition of growth at 10 µM [20] | GI50 [21] | other results
1 | O=C1CC(c2ccccc2)Cc2nc3c(Br)cc(Br)cc3cc21 (stereo not drawn) | 93.8% | 52.9% | 140% | 60.5% | 0.104 µM | 0.196 µM | 0.14 µM | 77.6% | 0.236 µM | 0.0913 µM | 124% | 85.9% | 0.338 µM | 0.312 µM | 0.382 µM | 96% | 0.298 µM | 0.0748 µM | 79.2% | 0.0889 µM | GI50 [2]: 0.102 µM; GI50 [22]: 0.0795 µM; inhibition of growth at 10 µM [23]: 118%; GI50 [24]: 0.284 µM; GI50 [25]: 0.478 µM; GI50 [26]: 0.0492 µM; GI50 [27]: 0.233 µM; GI50 [28]: 0.152 µM; inhibition of growth at 10 µM [29]: 91.4%; GI50 [30]: 0.0478 µM; inhibition of growth at 10 µM [31]: 65.2%; GI50 [32]: 0.391 µM; GI50 [33]: 0.541 µM; GI50 [34]: 0.595 µM
2 | O=C1CC(c2ccccc2)Cc2nc3ccc(Br)cc3cc21 (stereo not drawn) | 94.4% | 72.8% | 128% | 67.8% | 0.0537 µM | 0.206 µM | 0.0745 µM | 74.9% | 0.0669 µM | 0.0567 µM | 140% | 75.9% | 0.444 µM | 0.528 µM | 2.76 µM | 75.9% | 0.288 µM | 0.623 µM | 89.5% | 0.0498 µM | GI50 [2]: 0.611 µM; GI50 [22]: 0.64 µM; inhibition of growth at 10 µM [23]: 97.9%; GI50 [24]: 0.0505 µM; GI50 [25]: 0.954 µM; inhibition of growth at 10 µM [35]: 112%; GI50 [26]: 0.238 µM; GI50 [27]: 0.205 µM; GI50 [28]: 0.261 µM; inhibition of growth at 10 µM [29]: 81.9%; GI50 [30]: 0.0515 µM; inhibition of growth at 10 µM [36]: 91.5%; inhibition of growth at 10 µM [31]: 72.6%; GI50 [32]: 0.756 µM; inhibition of growth at 10 µM [37]: 76.2%; GI50 [33]: 0.685 µM; GI50 [34]: 0.583 µM
3 | COc1ccc2nc3c(cc2c1)C(=O)CC(C(F)(F)F)C3 (stereo not drawn) | 88.1% | 42.3% | 94.7% | 57.9% | 0.0882 µM | 0.853 µM | 0.355 µM | 58.5% | 0.336 µM | 0.217 µM | 148% | 60.2% | 0.697 µM | 1.37 µM | 3.42 µM | 60% | 0.411 µM | 1.32 µM | 84.7% | 0.238 µM | GI50 [22]: 2 µM; inhibition of growth at 10 µM [23]: 68.6%; GI50 [24]: 0.238 µM; inhibition of growth at 10 µM [35]: 108%; GI50 [26]: 0.802 µM; GI50 [27]: 0.387 µM; GI50 [28]: 1.16 µM; inhibition of growth at 10 µM [29]: 15.3%; GI50 [30]: 0.133 µM; inhibition of growth at 10 µM [36]: 90.1%; inhibition of growth at 10 µM [31]: 49.7%; GI50 [32]: 4.19 µM; inhibition of growth at 10 µM [37]: 60.7%; GI50 [34]: 0.768 µM
4 | O=C1CC(c2ccccc2)Cc2nc3ccc(Cl)cc3cc21 (stereo not drawn) | 94.5% | 73.6% | 129% | 71.8% | 0.0675 µM | 0.196 µM | 0.087 µM | 77% | 0.0644 µM | 0.0532 µM | 139% | 79.2% | 0.333 µM | 0.588 µM | 2.55 µM | 77.6% | 0.203 µM | 0.72 µM | 93.2% | 0.04 µM | GI50 [2]: 0.845 µM; GI50 [22]: 0.489 µM; inhibition of growth at 10 µM [23]: 114%; GI50 [24]: 0.038 µM; GI50 [25]: 1.69 µM; inhibition of growth at 10 µM [35]: 117%; GI50 [26]: 0.32 µM; GI50 [27]: 0.271 µM; GI50 [28]: 0.346 µM; inhibition of growth at 10 µM [29]: 81.2%; GI50 [30]: 0.0468 µM; inhibition of growth at 10 µM [36]: 89.6%; inhibition of growth at 10 µM [31]: 75%; GI50 [32]: 0.607 µM; inhibition of growth at 10 µM [37]: 76.7%; GI50 [33]: 0.5 µM; GI50 [34]: 0.508 µM
5 | COc1ccc2nc3c(cc2c1)C(=O)CC(c1ccccc1)C3 (stereo not drawn) | 88.9% | 38.8% | 107% | 59.3% | 0.431 µM | 0.634 µM | 0.346 µM | 82.2% | 0.408 µM | 0.322 µM | 168% | 73.5% | 0.728 µM | 2.68 µM | 3.49 µM | 61% | 0.54 µM | 5.78 µM | 82.2% | 0.322 µM | GI50 [2]: 2.09 µM; GI50 [22]: 0.543 µM; inhibition of growth at 10 µM [23]: 69.8%; GI50 [24]: 0.259 µM; inhibition of growth at 10 µM [35]: 113%; GI50 [26]: 0.777 µM; GI50 [27]: 0.428 µM; GI50 [28]: 0.608 µM; inhibition of growth at 10 µM [29]: 55%; GI50 [30]: 0.432 µM; inhibition of growth at 10 µM [36]: 89.3%; inhibition of growth at 10 µM [31]: 65.7%; GI50 [32]: 5.92 µM; inhibition of growth at 10 µM [37]: 65.2%; GI50 [33]: 2.21 µM; GI50 [34]: 0.756 µM
